Assay results as given in US20250026777A1, “COCRYSTALS OF NICOTINAMIDE RIBOSIDE SALTS, CRYSTALLINE FORMS, METHODS OF PREPARATION, AND APPLICATIONS THEREOF” (Beiture LLP, priority 2023, published 2025).
Entries after “also recorded” stand apart in the source; their conditions may differ. Read-outs that look alike come from different tables or passages of the source.

Assays:
[1] = Hygroscopicity evaluation at about 75% RH (NaCl saturated aqueous solution), visual powder property and polarized light microscopy; assay type: physicochemical; conditions: for powder property after 1 day / powder property after 7 days / powder property and crystallinity after 30 days: ~75% RH, room temperature (~22° C.); for hygroscopicity compared to NR—Cl crystalline forms: compared to NR—Cl-Form A and NR—Cl-Form B; for powder state for more than one month: environment of 75% RH
Description: In addition to the thermal stability, the hygroscopicity, the tendency of a solid substance to absorb moisture from the surrounding atmosphere, is another important physicochemical property that needs to be considered during pharmaceutical development, because, like the heat, the moisture may also damage the drug product at a specific storage condition during the period of the drug shelf life. One of the key disadvantages of the nicotinamide riboside chloride products in the market is its poor hygroscopicity. As reported previously, all the three crystalline forms of the nicotinamide riboside chloride deliquesce at the relative humidity (RH) of 70%-80%. As a result, the nicotinamide riboside chloride requires to store in a dry place to avoid absorbing moisture from the air. […] The hygroscopicity assessment can be achieved by placing compounds in a specified relative humidity environment, e.g., ˜75% RH environment established with the sodium chloride saturated aqueous solution.
A Kerr SureTight™ container of 8 oz Clear Glass Wide Mouth Mason Jars with Silver Vacuum Seal Lid was used to secure the closure. An 8 ml opened vial containing sodium chloride (NaCl) saturated aqueous solution (about 75.5% RH at 20° C. and about 75.3% at 25° C. from www.engineeringtoolbox.com/salt-humidity-d_1887.html) was placed in the SureTight container. The 4 ml of opened vials containing about 5 mg of [NR—Cl]2[RSV] cocrystals or NR—Cl crystalline forms were also placed in the same container with the vial of the NaCl saturated aqueous solution. The container was sealed with the seal lid and placed in a room temperature condition (˜22° C.). The powder property was visually observed directly or during shaking the vial. Crystallinity was assessed under a polarized light microscope.

[2] = NR—Cl crystalline forms, previously identified; cited from earlier work
[3] = Chemical decomposition in alcohol suspension; assay type: physicochemical
Description: Reaction crystallization temperatures and times depend upon targeted crystalline form of the cocrystal of a salt that is to be crystallized, the concentration of the salt and coformer in solution, and the solvent system. It should be noted that the elevated temperature or the long reaction time should be avoided to reduce the possibility of chemical decomposition for the […]. […] Even in room temperature, the nicotinamide riboside chloride starts to decompose after stirring in the alcohol suspension for more than 3 days. The preferred reaction time is less than 24 hours with reaction temperature at around room temperature.

[4] = assay type: physicochemical
Description: Various solvents are selected based on solubility of starting materials and crystallization methods disclosed herein. […] These differences in solubilities also impact the ratio of the two starting materials. In the disclosed methods to prepare […], a ratio between the nicotinamide riboside chloride salt and resveratrol cofomer from about 2:1 to about 2:2 to prepare [NR—Cl]2[RSV] with a NR—Cl/RSV molar ratio of 2:1.

[5] = Thermal stability by differential scanning calorimetry (DSC); assay type: physicochemical; conditions: for heat of fusion: DSC; for melting/decomposition endotherm peak: heating rate 10° C./minute
Description: Thermal stability is the stability of a molecule at elevated temperatures, and a molecule with more thermal stability has more resistance to decomposition at elevated temperatures. Thermal stability of a compound is one of the most important pharmaceutical properties that requires to be considered during developing a pharmaceutical or nutraceutical product. […] Differential Scanning calorimetry (DSC) is an analysis technique by measuring the heat change associated with the molecule's thermal events when heated at a constant rate. The temperature and its enthalpy change (usually the heat of fusion) at a specific thermal event recorded from DSC technique could be used to evaluate the thermal stability of an organic molecule directly. […] It is desirable to identify a new crystalline form with a higher melting/decomposition temperature and/or a larger heat of fusion to improve the thermal stability of the nicotinamide riboside drug substance.
DSC analysis was performed on samples prepared according to standard methods using a Q SERIES™ Q2500 DSC calorimeter available from TA INSTRUMENTS® (New Castle, Delaware). A sample (approximately 2 mg) was weighed into an aluminum sample pan and transferred to the DSC. The instrument was purged with nitrogen at 50 mL/min and data collected between 22° C. and 300° C., using a dynamic heating rate of 10° C./minute. Thermal data was analyzed using standard software, e.g., TRIOS from TA INSTRUMENTS®.

Molecule	powder property after 1 day [1]	powder property after 7 days [1]	powder property and crystallinity after 30 days [1]	heat of fusion [2] [J/g]	melting/decomposing temperature [2] [°C]	solubility in EtOH [4]	solubility in IPA [4]	solubility in MeOH [4]	solubility in water [4]	hygroscopicity compared to NR—Cl crystalline forms [1]	powder state for more than one month [1]	heat of fusion [5] [J/g]	melting/decomposition endotherm peak [5]	also measured
NC(=O)c1ccc[n+]([C@@H]2O[C@H](CO)[C@@H](O)[C@H]2O)c1.[Cl-] [NR—Cl-Form A, nicotinamide riboside chloride]	deliquesced; also recorded: became sticky and could not flow freely	deliquesced	glass-like liquids (amorphous materials)	58	119	–	–	–	–	–	–	–	–	–
NC(=O)c1ccc[n+]([C@@H]2O[C@H](CO)[C@@H](O)[C@H]2O)c1.[Cl-] [NR—Cl-Form B, nicotinamide riboside chloride]	–	–	glass-like liquids (amorphous materials)	69	123	–	–	–	–	–	–	–	–	–
NC(=O)c1ccc[n+]([C@@H]2O[C@H](CO)[C@@H](O)[C@H]2O)c1.[Cl-] [nicotinamide riboside chloride]	–	–	–	–	–	poorly soluble	poorly soluble	soluble	soluble	–	–	–	–	time within which decomposition occurs in alcohol suspension ([3]; elevated temperature above 50° C.): ≤ 1 h; stirring time after which decomposition starts in alcohol suspension ([3]; room temperature): more than 3 days
Oc1ccc(/C=C/c2cc(O)cc(O)c2)cc1 [resveratrol, 3,5,4′-trihydroxy-trans-stilbene]	–	–	–	–	–	soluble	soluble	soluble	poorly soluble	–	–	–	–	–
resveratrol cocrystal of nicotinamide riboside chloride [[NR—Cl]2[RSV]-Form A]	flowable powders	flowable powders	flowable crystalline powders	–	–	–	–	–	–	better hygroscopicity	retain as flowable crystalline powders	100	about 128 °C	thermal stability compared to NR—Cl crystalline forms ([5]; from melting/decomposition temperature and heat of fusion): better thermal stability
resveratrol cocrystal of nicotinamide riboside chloride [[NR—Cl]2[RSV]-Form B]	flowable powders	flowable powders	flowable crystalline powders	–	–	–	–	–	–	better hygroscopicity	retain as flowable crystalline powders	97	about 127 °C	–
